Data as given in patent US11439667B2, “Compositions and methods for expansion of embryonic hematopoietic stem cells” (Fred Hutchinson Cancer Research Center, priority 2013, dated 2022).

Columns and labels:
[1] = tested on: ESC-derived endothelial cells; settings: cited from earlier work
[2] = tested on: human osteosarcoma cells; settings: cited from earlier work
[3] = tested on: mouse AGM VE-Cadherin+/CD45+ cells; assay: ex vivo expansion of AGM-derived embryonic HSPC, surface phenotype by FACS; format: cell-based; settings: combined with Notch agonist (such as Delta1ext-IgG) and one or more growth factors
From the text: Embryos were harvested from pregnant females at 9.5 to 11.5 dpc, dissected free of maternal tissue and washed extensively in PBS containing 10% fetal bovine serum (FBS). Embryo age was precisely time by counting somite numbers. Yolks sac was dissected free from the embryo. For AGM dissections, 30 gauge needles were used to remove the caudal and rostral portions of the embryo above the forelimbs and below the hindlimbs, and subsequently dissect off the dorsal somite tissue and ventral abdominal contents. The embryo was then splayed open lying on its dorsal surface and remaining tissues surrounding the urogenital ridges were further dissected, leaving the intact AGM containing the dorsal aorta centrally. For embryos prior to AGM stage (E9.5 or less), the P-Sp region was dissected by removing the rostral and caudal portions of the embryo. Dissected yolk sac or AGM/P-Sp tissues were pooled and treated with 0.25% collagenase (Stem Cell Technologies, Vancouver, Canada) for 25-30 minutes at 37° C., pipetted to single cell suspension, and washed with PBS containing 10% FBS. For Ly6a-eGFP transgenic embryos, dissected embryos were processed separately and pooled for sorting, if indicated, following confirmation of GFP expression. […]

[4] = target: T1, ALK7 (Homo sapiens, UniProt Q8NER5); settings: cited from earlier work
T1 sequence (Q8NER5 21-493): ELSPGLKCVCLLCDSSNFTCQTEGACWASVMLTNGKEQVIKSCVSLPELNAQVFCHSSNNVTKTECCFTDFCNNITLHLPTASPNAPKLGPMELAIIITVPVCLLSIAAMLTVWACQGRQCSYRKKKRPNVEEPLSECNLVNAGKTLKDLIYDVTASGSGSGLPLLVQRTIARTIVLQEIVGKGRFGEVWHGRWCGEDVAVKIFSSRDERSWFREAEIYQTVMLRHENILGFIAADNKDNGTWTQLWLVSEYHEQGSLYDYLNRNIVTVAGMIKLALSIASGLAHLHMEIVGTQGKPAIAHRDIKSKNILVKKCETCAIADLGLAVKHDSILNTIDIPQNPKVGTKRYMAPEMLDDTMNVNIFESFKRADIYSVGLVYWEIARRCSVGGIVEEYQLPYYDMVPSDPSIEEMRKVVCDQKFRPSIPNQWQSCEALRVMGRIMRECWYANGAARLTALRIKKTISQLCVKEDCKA

[5] = tested on: human ESC; settings: Wang C, et al. Cell Res. 2012; cited from earlier work

NC(=O)c1ccc(-c2nc(-c3ccc4c(c3)OCO4)c(-c3ccccn3)[nH]2)cc1 [SB431542, 4-[4-(1,3-benzodioxol-5-yl)-5-(2-pyridinyl)-1H-imidazol-2-yl]benzamide]
effect on proliferation, differentiation and sheet formation of ESC-derived endothelial cells [1]: stimulate | effect on TGF-β-induced proliferation of human osteosarcoma cells [2]: suppress | effect on expansion of the eHSC when combined with Notch agonist and growth factors [3]: additive and/or synergistic effect | inhibition of ALK7 [4]: potent and selective inhibitor | effect on general hematopoiesis from human ESC [5]: enhance general hematopoiesis, though not engrafting HSC
